Assay results published in the supplement of paper PMC11061612.

Tests used:
[1] = test system: NCI-H23 (Lung Adenocarcinoma); experiment: Bliss excess, mean over the matrix (fraction); higher = more synergy
Procedure, shortened: (§1)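 Bliss excess equals the observed combination effect minus the expected value EA + EB − EA·EB, where EA and EB are the effects of each agent alone. Combination Emax is the second-highest inhibition within the matrix. Inhibition was scaled from CellTiter-Glo 2.0 luminescence, with 0 set by vehicle wells and 1 by blank wells, after 72 hours of two-drug dosing of cells plated in 1536-well plates.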

[2] = test system: COLO-680N (Esophageal Squamous Cell Carcinoma); experiment: as above
Procedure, shortened: as §1

[3] = test system: HEC-1 (Endometrial Carcinoma); experiment: as above
Procedure, shortened: as §1

[4] = test system: RERF-LC-Sq1 (Squamous Cell Lung Carcinoma); experiment: combination Emax (second highest fraction inhibited in the dose matrix, 72 h); higher = more inhibition; extreme values may be limits of the assay
Procedure, shortened: as §1

[5] = test system: HCT-15 (Colorectal Carcinoma); experiment: as above
Procedure, shortened: as §1

[6] = test system: REH (B-Lymphoblastic Leukemia); experiment: as above
Procedure, shortened: as §1

[7] = test system: L-1236 (Hodgkin's Lymphoma); experiment: as above
Procedure, shortened: as §1

[8] = test system: VAL (B-Cell Non-Hodgkin's Lymphoma); experiment: as above
Procedure, shortened: as §1

[9] = test system: 23132-87 (Gastric Carcinoma); experiment: as above
Procedure, shortened: as §1

[10] = test system: SHP-77 (Small Cell Lung Carcinoma); experiment: as above
Procedure, shortened: as §1

[11] = test system: RERF-GC-1B (Gastric Carcinoma); experiment: as above
Procedure, shortened: as §1

[12] = test system: LXF-289 (Lung Adenocarcinoma); experiment: as above
Procedure, shortened: as §1

[13] = test system: PANC-03-27 (Pancreatic Carcinoma); experiment: as above
Procedure, shortened: as §1

[14] = test system: HSC-39 (Gastric Carcinoma); experiment: as above
Procedure, shortened: as §1

[15] = test system: NCI-H446 (Small Cell Lung Carcinoma); experiment: as above
Procedure, shortened: as §1

[16] = test system: MKN45 (Gastric Carcinoma); experiment: as above
Procedure, shortened: as §1

[17] = test system: OVMIU (Ovarian Carcinoma); experiment: as above
Procedure, shortened: as §1

A2058 (Melanoma) = experiment: as above
Procedure, shortened: as §1

[18] = test system: SK-PN-DW (Other Solid Carcinomas); experiment: as above
Procedure, shortened: as §1

LN-229 (Glioblastoma) = experiment: as above
Procedure, shortened: as §1

SMILES	Bliss excess [1]	Bliss excess [2]	Bliss excess [3]	combination Emax [4]	combination Emax [5]	combination Emax [6]	combination Emax [7]	combination Emax [8]	combination Emax [9]	combination Emax [10]	combination Emax [11]	combination Emax [12]	combination Emax [13]	combination Emax [14]	combination Emax [15]	combination Emax [16]	combination Emax [17]	combination Emax (A2058 (Melanoma))	combination Emax [18]	combination Emax (LN-229 (Glioblastoma))
CC1(C)CCC(CN2CCN(c3ccc(C(=O)NS(=O)(=O)c4ccc(NCC5CCOCC5)c([N+](=O)[O-])c4)c(Oc4cnc5[nH]ccc5c4)c3)CC2)=C(c2ccc(Cl)cc2)C1 [Venetoclax] + C[C@@H]1COCCN1C2=NC(=NC(=C2)C3(CC3)[S@](=N)(=O)C)C4=C5C=CNC5=NC=C4 [AZD6738] (first compound max 1 µM, 7x7, partner max 10 µM)	0.0157	-0.0004	-0.0267	0.675	0.71	0.996	0.847	1	0.433	0.697	0.428	0.554	0.781	1	0.924	0.678	0.537	0.788	0.929	0.582
CC1(C)CCC(CN2CCN(c3ccc(C(=O)NS(=O)(=O)c4ccc(NCC5CCOCC5)c([N+](=O)[O-])c4)c(Oc4cnc5[nH]ccc5c4)c3)CC2)=C(c2ccc(Cl)cc2)C1 [Venetoclax] + C[C@@H](Nc1cc(F)cc(F)c1)c1cc(C(=O)N(C)C)cc2c(=O)cc(N3CCOCC3)oc12 [AZD8186] (first compound max 1 µM, 7x7, partner max 3 µM)	0.007	-0.0276	-0.0336	0.121	0.138	0.96	0.665	1	0.0687	0.322	0.103	0.224	0.592	0.972	0.581	0.602	0.575	0.158	0.862	0.0902
CC1(C)CCC(CN2CCN(c3ccc(C(=O)NS(=O)(=O)c4ccc(NCC5CCOCC5)c([N+](=O)[O-])c4)c(Oc4cnc5[nH]ccc5c4)c3)CC2)=C(c2ccc(Cl)cc2)C1 [Venetoclax] + Cc1cc2ncnn2cc1Nc1ncc2c(n1)n(C1CCOCC1)c(=O)n2C [AZD7648] (first compound max 1 µM, 7x7, partner max 10 µM)	-0.0172	-0.0293	-0.0286	0.229	0.229	0.875	0.621	1	0.152	0.34	0.28	0.163	0.584	0.936	0.403	0.588	0.374	0.203	0.856	0.115
CC1(C)CCC(CN2CCN(c3ccc(C(=O)NS(=O)(=O)c4ccc(NCC5CCOCC5)c([N+](=O)[O-])c4)c(Oc4cnc5[nH]ccc5c4)c3)CC2)=C(c2ccc(Cl)cc2)C1 [Venetoclax] + Cn1cnc2c(F)c(Nc3ccc(Br)cc3Cl)c(C(=O)NOCCO)cc21 [Selumetinib] (first compound max 1 µM, 7x7, partner max 3 µM)	-0.0208	-0.0243	-0.0315	0.312	0.156	0.897	0.731	1	0.0843	0.455	0.27	0.183	0.684	0.936	0.198	0.65	0.479	0.493	0.806	0.3
